Data taken from the supplement of paper PMC10307832.

Tests used:
Test in all cases: relative viability (nuclei count vs DMSO), 5 days (fraction); higher = more cells survive
KN-93 + Linsitinib = compound: CN(C/C=C/C1=CC=C(C=C1)Cl)CC2=CC=CC=C2N(CCO)S(=O)(=O)C3=CC=C(C=C3)OC [KN-93] + C[C@]1(O)C[C@@H](c2nc(-c3ccc4ccc(-c5ccccc5)nc4c3)c3c(N)nccn32)C1 [Linsitinib] (partner 1 µM)
Method in brief: (§1)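 Each reported value is a median over duplicate plates. It expresses relative viability: treated-well nuclei count divided by vehicle-well nuclei count. Lung cancer cell lines in 1536-well plates were dosed by pin tool a day after seeding, alone with one drug or with a fixed anchor-drug dose plus five library-drug doses (not always all listed) in √10 steps, and nuclei were counted after 5 days.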

KN-93 + Alpelisib = compound: CN(C/C=C/C1=CC=C(C=C1)Cl)CC2=CC=CC=C2N(CCO)S(=O)(=O)C3=CC=C(C=C3)OC [KN-93] + Cc1nc(NC(=O)N2CCC[C@H]2C(N)=O)sc1-c1ccnc(C(C)(C)C(F)(F)F)c1 [Alpelisib] (partner 2 µM)
Method in brief: as §1

KN-93 + Bortezomib = compound: CN(C/C=C/C1=CC=C(C=C1)Cl)CC2=CC=CC=C2N(CCO)S(=O)(=O)C3=CC=C(C=C3)OC [KN-93] + CC(C)C[C@H](NC(=O)[C@H](Cc1ccccc1)NC(=O)c1cnccn1)B(O)O [Bortezomib] (partner 0.002 µM)
Method in brief: as §1

KN-93 + Pictilisib = compound: CN(C/C=C/C1=CC=C(C=C1)Cl)CC2=CC=CC=C2N(CCO)S(=O)(=O)C3=CC=C(C=C3)OC [KN-93] + CS(=O)(=O)N1CCN(Cc2cc3nc(-c4cccc5[nH]ncc45)nc(N4CCOCC4)c3s2)CC1 [Pictilisib] (partner 1 µM)
Method in brief: as §1

KN-93 + Crizotinib = compound: CN(C/C=C/C1=CC=C(C=C1)Cl)CC2=CC=CC=C2N(CCO)S(=O)(=O)C3=CC=C(C=C3)OC [KN-93] + C[C@@H](Oc1cc(-c2cnn(C3CCNCC3)c2)cnc1N)c1c(Cl)ccc(F)c1Cl [Crizotinib] (partner 1 µM)
Method in brief: as §1

Row | Cell Line | relative viability (KN-93 + Linsitinib; first compound 0.08 µM) | relative viability (KN-93 + Linsitinib; first compound 0.253 µM) | relative viability (KN-93 + Linsitinib; first compound 2.53 µM) | relative viability (KN-93 + Linsitinib; first compound 8 µM) | relative viability (KN-93 + Alpelisib; first compound 0.08 µM) | relative viability (KN-93 + Alpelisib; first compound 0.253 µM) | relative viability (KN-93 + Alpelisib; first compound 2.53 µM) | relative viability (KN-93 + Alpelisib; first compound 8 µM) | relative viability (KN-93 + Bortezomib; first compound 0.08 µM) | relative viability (KN-93 + Bortezomib; first compound 0.253 µM) | relative viability (KN-93 + Bortezomib; first compound 2.53 µM) | relative viability (KN-93 + Bortezomib; first compound 8 µM) | relative viability (KN-93 + Pictilisib; first compound 0.08 µM) | relative viability (KN-93 + Pictilisib; first compound 0.253 µM) | relative viability (KN-93 + Pictilisib; first compound 2.53 µM) | relative viability (KN-93 + Pictilisib; first compound 8 µM) | relative viability (KN-93 + Crizotinib; first compound 0.08 µM) | relative viability (KN-93 + Crizotinib; first compound 0.253 µM) | relative viability (KN-93 + Crizotinib; first compound 2.53 µM) | relative viability (KN-93 + Crizotinib; first compound 8 µM)
1 | NCI-H2126 | 0.785 | 0.673 | 0.713 | 0.683 | 0.81 | 0.725 | 0.769 | 0.727 | 1.07 | 1.08 | 1.19 | 1.09 | 0.482 | 0.443 | 0.499 | 0.468 | 1.04 | 1.14 | 1.07 | 0.981
2 | NCI-H2228 | 0.581 | 0.517 | 0.63 | 0.314 | 0.704 | 0.553 | 0.722 | 0.236 | 1.01 | 1.18 | 1.14 | 0.817 | 0.251 | 0.324 | 0.384 | 0.329 | 0.445 | 0.48 | 0.526 | 0.248
3 | NCI-H2347 | 1.07 | 0.922 | 0.918 | 0.797 | 1 | 1.09 | 1.07 | 0.764 | 1.27 | 0.741 | 0.828 | 0.745 | 0.572 | 0.616 | 0.696 | 0.543 | 0.686 | 0.731 | 0.739 | 0.463
4 | NCI-H2405 | 0.984 | 0.908 | 0.924 | 0.564 | 0.831 | 0.732 | 0.766 | 0.526 | 1.01 | 0.978 | 1.09 | 0.728 | 0.407 | 0.319 | 0.446 | 0.305 | 0.853 | 0.832 | 0.873 | 0.665
5 | NCI-H3122 | 1.08 | 0.803 | 1.23 | 0.882 | 0.829 | 0.659 | 0.766 | 0.585 | 1.06 | 1.07 | 1.13 | 1.03 | 0.622 | 0.708 | 0.639 | 0.627 | 0.287 | 0.31 | 0.299 | 0.264
6 | PC-3 [JPC-3] | 1.02 | 1.02 | 0.995 | 0.876 | 0.999 | 1.04 | 1.01 | 0.94 | 0.724 | 0.97 | 0.982 | 0.579 | 0.727 | 0.708 | 0.759 | 0.645 | 0.953 | 1.2 | 1.06 | 0.886
7 | PC-14 | 0.855 | 0.976 | 1.07 | 0.824 | 0.753 | 1.01 | 1.14 | 0.839 | 0.686 | 0.899 | 0.933 | 0.734 | – | 0.531 | 0.618 | 0.349 | 0.89 | 0.842 | 0.953 | 0.585
8 | RERF-LC-KJ | 0.82 | 0.82 | 0.967 | 0.611 | 0.682 | 0.754 | 0.766 | 0.634 | 1.07 | 1.2 | 1.09 | 0.928 | 0.582 | 0.486 | 0.598 | 0.332 | 0.803 | 0.848 | 0.917 | 0.639
9 | SK-LU-1 | 1.06 | 1.12 | 1.21 | 0.602 | 1.19 | 1.47 | 0.926 | 0.471 | 1.58 | 1.02 | 1.59 | 0.591 | 0.5 | 0.591 | 0.536 | 0.357 | 0.834 | 1.26 | 0.915 | 0.673
10 | SW 1573 | 0.906 | 0.884 | 0.714 | 0.349 | 0.87 | 0.805 | 0.933 | 0.632 | 1.04 | 1.23 | 0.973 | 0.763 | – | 0.446 | 0.493 | 0.199 | 0.766 | 0.926 | 0.822 | 0.33
11 | UMC-11 | – | 1.19 | 1.13 | 0.713 | – | 1.24 | 1.27 | 0.613 | – | 0.919 | 0.799 | 0.197 | – | 0.976 | 0.962 | 0.278 | – | 0.901 | 0.413 | 0.457
